Test results reported in US8383660B2, “Dibenzyl amine compounds and derivatives” (Pfizer Inc., priority 2006, dated 2013).
Counter-ions that a name gives are not always drawn.

melting point: 95 °C
SMILES: CCOCC1(F)CCN([C@@H](c2ccc(C(F)(F)F)cc2CN(Cc2cc(C(F)(F)F)cc(C(F)(F)F)c2)c2nnn(C)n2)C(C)C)CC1 (as salt: mesylate) [Example 213, (N-[3,5-bis(trifluoromethyl)benzyl]-N-[2-{(1R)-1-[4-(ethoxymethyl)-4-fluoropiperidin-1-yl]-2-methylpropyl}-5-(trifluoromethyl)benzyl]-2-methyl-2H-tetrazol-5-amine)]
